The subject of this test is MV-4-11 cells. Put plainly: Gene expression microarray analysis (Affymetrix PrimeView) and GSEA. The format is cell-based, human. Also on record: RFU PODN (11730768_x_at) / Fold change /veh PODN (11730768_x_at) / RFU LINC00158 (11744669_a_at) / Fold change /veh LINC00158 (11744669_a_at) / RFU DUSP10 (11751237_a_at) / Fold change /veh DUSP10 (11751237_a_at) / RFU ID3 (11757404_x_at) / Fold change /veh ID3 (11757404_x_at) / RFU PLEKHG5 (11737974_s_at) / Fold change /veh PLEKHG5 (11737974_s_at) / RFU LRRC4B (11730491_at) / Fold change /veh LRRC4B (11730491_at) / RFU GIMAP4 (11747438_a_at) / Fold change /veh GIMAP4 (11747438_a_at) / RFU KRT8 (11758183_x_at) / Fold change /veh KRT8 (11758183_x_at) / RFU CNN1 (11734310_a_at) / Fold change /veh CNN1 (11734310_a_at) / RFU VPS37D (11726825_at) / Fold change /veh VPS37D (11726825_at) / RFU C10orf10 (11716522_x_at) / Fold change /veh C10orf10 (11716522_x_at) / RFU KIR2DL2 /// KIR2DL4 /// KIR2DL5A /// KIR2DL5B /// KIR2DS1 /// KIR2DS2 /// KIR2DS3 /// KIR2DS4 /// KIR3DL3 /// KIR3DL3 /// KIR3DS1 (11738374_at) / Fold change /veh KIR2DL2 /// KIR2DL4 /// KIR2DL5A /// KIR2DL5B /// KIR2DS1 /// KIR2DS2 /// KIR2DS3 /// KIR2DS4 /// KIR3DL3 /// KIR3DL3 /// KIR3DS1 (11738374_at) / RFU C1QL1 (11718748_at) / Fold change /veh C1QL1 (11718748_at) / RFU TMPRSS4 (11747572_a_at) / Fold change /veh TMPRSS4 (11747572_a_at) / RFU HAMP (11756126_x_at) / Fold change /veh HAMP (11756126_x_at) / RFU RNFT2 (11725882_a_at) / Fold change /veh RNFT2 (11725882_a_at) / RFU NR4A2 (11747474_a_at) / Fold change /veh NR4A2 (11747474_a_at) / RFU ABCC12 (11746883_a_at) / Fold change /veh ABCC12 (11746883_a_at) / RFU TMEM136 (11760407_x_at) / Fold change /veh TMEM136 (11760407_x_at) / RFU CLDN22 /// WWC2 (11732394_at) / Fold change /veh CLDN22 /// WWC2 (11732394_at) / RFU HLA-DPB1 (11760878_x_at) / Fold change /veh HLA-DPB1 (11760878_x_at) / RFU SPINT1 (11716480_a_at) / Fold change /veh SPINT1 (11716480_a_at) / RFU GAP43 (11754022_s_at) / Fold change /veh GAP43 (11754022_s_at) / RFU A4GNT (11735810_at) / Fold change /veh A4GNT (11735810_at) / RFU PRB3 (11715151_x_at) / Fold change /veh PRB3 (11715151_x_at) / RFU TUBB4B (11761932_at) / Fold change /veh TUBB4B (11761932_at) / RFU CAPN14 (11732068_a_at) / Fold change /veh CAPN14 (11732068_a_at) / RFU TMCC2 (11721928_a_at) / Fold change /veh TMCC2 (11721928_a_at) / RFU IRGQ (11745062_a_at) / Fold change /veh IRGQ (11745062_a_at) / RFU FAM174B (11720279_a_at) / Fold change /veh FAM174B (11720279_a_at) / RFU TMPRSS4 (11748680_a_at) / Fold change /veh TMPRSS4 (11748680_a_at) / RFU FAM212B (11763350_a_at) / Fold change /veh FAM212B (11763350_a_at) / RFU PLEKHG5 (11743358_a_at) / Fold change /veh PLEKHG5 (11743358_a_at) / RFU ZSCAN30 (11745921_a_at) / Fold change /veh ZSCAN30 (11745921_a_at) / RFU CMKLR1 (11741424_a_at) / Fold change /veh CMKLR1 (11741424_a_at) / RFU LOC101060620 /// MAPK8IP1 (11723275_at) / Fold change /veh LOC101060620 /// MAPK8IP1 (11723275_at) / RFU SPTSSB (11747773_x_at) / Fold change /veh SPTSSB (11747773_x_at) / RFU PRSS12 (11739890_at) / Fold change /veh PRSS12 (11739890_at) / RFU BIN1 (11741810_x_at) / Fold change /veh BIN1 (11741810_x_at) / RFU WNT11 (11732464_a_at) / Fold change /veh WNT11 (11732464_a_at) / RFU C10orf10 (11716521_a_at) / Fold change /veh C10orf10 (11716521_a_at) / RFU C5orf56 (11738089_at) / Fold change /veh C5orf56 (11738089_at) / RFU CYB561 (11721691_x_at) / Fold change /veh CYB561 (11721691_x_at) / RFU ANKRD19P (11752326_a_at) / Fold change /veh ANKRD19P (11752326_a_at) / RFU OR2T12 /// OR2T33 /// OR2T8 (11738714_s_at) / Fold change /veh OR2T12 /// OR2T33 /// OR2T8 (11738714_s_at) / RFU VCAN (11748164_a_at) / Fold change /veh VCAN (11748164_a_at) / RFU JSRP1 (11732532_at) / Fold change /veh JSRP1 (11732532_at) / RFU KRTAP10-11 (11738290_x_at) / Fold change /veh KRTAP10-11 (11738290_x_at) / RFU MYO3A (11730013_a_at) / Fold change /veh MYO3A (11730013_a_at) / RFU EBF3 (11725865_a_at) / Fold change /veh EBF3 (11725865_a_at) / RFU CAMK2N1 (11719241_x_at) / Fold change /veh CAMK2N1 (11719241_x_at) / RFU C5orf56 (11738088_a_at) / Fold change /veh C5orf56 (11738088_a_at) / RFU OLFML3 (11715873_a_at) / Fold change /veh OLFML3 (11715873_a_at) / RFU LOC100653217 /// NTM (11731650_a_at) / Fold change /veh LOC100653217 /// NTM (11731650_a_at) / RFU MAPK11 (11762145_a_at) / Fold change /veh MAPK11 (11762145_a_at) / RFU FIZ1 (11724087_x_at) / Fold change /veh FIZ1 (11724087_x_at) / RFU OASL (11726364_x_at) / Fold change /veh OASL (11726364_x_at) / RFU SOX15 (11748057_x_at) / Fold change /veh SOX15 (11748057_x_at) / RFU CD79A (11719716_a_at) / Fold change /veh CD79A (11719716_a_at) / RFU HIST1H1D (11736915_at) / Fold change /veh HIST1H1D (11736915_at) / RFU CASKIN2 (11723855_a_at) / Fold change /veh CASKIN2 (11723855_a_at) / RFU LOC730098 (11760151_x_at) / Fold change /veh LOC730098 (11760151_x_at) / RFU OR4N2 (11742367_at) / Fold change /veh OR4N2 (11742367_at) / RFU PRRT2 (11749266_a_at) / Fold change /veh PRRT2 (11749266_a_at) / RFU SNX32 (11753110_a_at) / Fold change /veh SNX32 (11753110_a_at) / RFU CDHR5 (11726645_a_at) / Fold change /veh CDHR5 (11726645_a_at) / RFU RCAN1 (11760418_a_at) / Fold change /veh RCAN1 (11760418_a_at) / RFU FAM167A (11723789_a_at) / Fold change /veh FAM167A (11723789_a_at) / RFU FAM26E (11764081_at) / Fold change /veh FAM26E (11764081_at) / RFU ISYNA1 (11749810_s_at) / Fold change /veh ISYNA1 (11749810_s_at) / RFU ACY1 (11761880_at) / Fold change /veh ACY1 (11761880_at) / RFU 11764098_at / Fold change /veh 11764098_at / RFU SAMD14 (11745864_x_at) / Fold change /veh SAMD14 (11745864_x_at) / RFU NPB (11741838_a_at) / Fold change /veh NPB (11741838_a_at) / RFU TMPRSS6 (11731388_a_at) / Fold change /veh TMPRSS6 (11731388_a_at) / RFU KRTAP10-2 (11738614_at) / Fold change /veh KRTAP10-2 (11738614_at) / RFU ARHGAP8 /// PRR5-ARHGAP8 (11727945_x_at) / Fold change /veh ARHGAP8 /// PRR5-ARHGAP8 (11727945_x_at) / RFU KRTAP5-7 /// NADSYN1 (11734609_at) / Fold change /veh KRTAP5-7 /// NADSYN1 (11734609_at) / RFU RASL12 (11751679_a_at) / Fold change /veh RASL12 (11751679_a_at) / RFU CDKN2B (11736163_a_at) / Fold change /veh CDKN2B (11736163_a_at) / RFU PRF1 (11729649_at) / Fold change /veh PRF1 (11729649_at) / RFU, ZNF638 /// ZNF638-IT1 / Fold change vs veh, ZNF638 /// ZNF638-IT1 / RFU, PANK3 / Fold change vs veh, PANK3 / RFU, SH3YL1 / Fold change vs veh, SH3YL1 / RFU, ZEB2 / Fold change vs veh, ZEB2 / RFU, NRIP1 / Fold change vs veh, NRIP1 / RFU, PTTG1IP / Fold change vs veh, PTTG1IP / RFU, CAPN2 / Fold change vs veh, CAPN2 / RFU, MED14 / Fold change vs veh, MED14 / RFU, SNORA58 / Fold change vs veh, SNORA58 / RFU, C1orf63 / Fold change vs veh, C1orf63 / RFU, LRRFIP1 / Fold change vs veh, LRRFIP1 / RFU, NDUFAF7 / Fold change vs veh, NDUFAF7 / RFU, SLC12A2 / Fold change vs veh, SLC12A2 / RFU, IBTK / Fold change vs veh, IBTK / RFU, ESF1 / Fold change vs veh, ESF1 / Fold change vs veh, TMEM50B / RFU, TAOK1 / Fold change vs veh, TAOK1 / RFU, ACBD3 / Fold change vs veh, ACBD3 / RFU, TMA16 / Fold change vs veh, TMA16 / RFU, RWDD3 / Fold change vs veh, RWDD3 / RFU, BCAT1 / Fold change vs veh, BCAT1 / RFU, EDEM3 / Fold change vs veh, EDEM3 / RFU, TMEM33 / Fold change vs veh, TMEM33 / RFU, WDR75 / Fold change vs veh, WDR75 / RFU, AHCTF1 / Fold change vs veh, AHCTF1 / RFU, TFRC / Fold change vs veh, TFRC / RFU, ZDHHC17 / Fold change vs veh, ZDHHC17 / RFU, NOM1 / Fold change vs veh, NOM1 / RFU, ARL8B / Fold change vs veh, ARL8B / RFU, ZBTB11 / Fold change vs veh, ZBTB11 / RFU, TAMM41 / Fold change vs veh, TAMM41 / RFU, KIAA1704 /// LOC100996395 / Fold change vs veh, KIAA1704 /// LOC100996395 / RFU, ING1 / Fold change vs veh, ING1 / RFU, TRMT61B / Fold change vs veh, TRMT61B / RFU, FUBP3 / Fold change vs veh, FUBP3 / RFU, TP53 / Fold change vs veh, TP53 / RFU, TNKS2 / Fold change vs veh, TNKS2 / RFU, ZFP14 / Fold change vs veh, ZFP14 / RFU, ACTR2 / Fold change vs veh, ACTR2 / RFU, PPP3R1 / Fold change vs veh, PPP3R1 / RFU, PIK3R1 / Fold change vs veh, PIK3R1 / RFU, HNRNPA1 / Fold change vs veh, HNRNPA1 / RFU, RNF170 / Fold change vs veh, RNF170 / RFU, ZNF28 / Fold change vs veh, ZNF28 / RFU, RNGTT / Fold change vs veh, RNGTT / RFU, OGT / Fold change vs veh, OGT / RFU, BRD1 / Fold change vs veh, BRD1 / RFU, MARS / Fold change vs veh, MARS / RFU, ZNF655 / Fold change vs veh, ZNF655 / RFU, FAHD1 / Fold change vs veh, FAHD1 / RFU, BDP1 / Fold change vs veh, BDP1 / RFU, LRRCC1 / Fold change vs veh, LRRCC1 / RFU, ARID1A / Fold change vs veh, ARID1A / RFU, ZNF146 / Fold change vs veh, ZNF146 / RFU, ZNF330 / Fold change vs veh, ZNF330 / RFU, GPN3 / Fold change vs veh, GPN3 / RFU, C9orf123 / Fold change vs veh, C9orf123 / RFU, N4BP2L2 / Fold change vs veh, N4BP2L2 / RFU, ARFIP1 / Fold change vs veh, ARFIP1 / RFU, FAM179B / Fold change vs veh, FAM179B / RFU, BCL10 / Fold change vs veh, BCL10 / RFU, UHRF1BP1L / Fold change vs veh, UHRF1BP1L / RFU, BET1 / Fold change vs veh, BET1 / RFU, CNOT2 / Fold change vs veh, CNOT2 / RFU, ZNF268 / Fold change vs veh, ZNF268 / Fold change vs veh, ZNF507 / RFU, DGCR2 / Fold change vs veh, DGCR2 / RFU, WDSUB1 / Fold change vs veh, WDSUB1 / Fold change vs veh, HSP90B1 /// MIR3652 / RFU, ADSS / Fold change vs veh, ADSS / RFU, GK / Fold change vs veh, GK / RFU, ZNF148 / Fold change vs veh, ZNF148 / RFU, TAF9 / Fold change vs veh, TAF9 / RFU, SLC1A5 / Fold change vs veh, SLC1A5 / RFU, SLMO2 / Fold change vs veh, SLMO2 / RFU, ABCC4 / Fold change vs veh, ABCC4 / RFU, LOC101060439 /// RAP1B / Fold change vs veh, LOC101060439 /// RAP1B / RFU, RFX7 / Fold change vs veh, RFX7 / RFU, GTPBP10 / Fold change vs veh, GTPBP10 / RFU, CNEP1R1 / Fold change vs veh, CNEP1R1 / RFU, BIVM-ERCC5 /// ERCC5 / Fold change vs veh, BIVM-ERCC5 /// ERCC5 / RFU, ILF3 / Fold change vs veh, ILF3 / RFU 11762660_at / Fold change /veh 11762660_at / RFU VCAN (11757783_s_at) / Fold change /veh VCAN (11757783_s_at) / RFU DDX43 (11728927_at) / Fold change /veh DDX43 (11728927_at) / RFU KRT8 (11758188_x_at) / Fold change /veh KRT8 (11758188_x_at) / RFU NKD1 (11759106_at) / Fold change /veh NKD1 (11759106_at) / RFU SRD5A1 (11742802_a_at) / Fold change /veh SRD5A1 (11742802_a_at) / RFU TPSAB1 /// TPSB2 (11721975_s_at) / Fold change /veh TPSAB1 /// TPSB2 (11721975_s_at) / RFU GSTM3 (11746129_a_at) / Fold change /veh GSTM3 (11746129_a_at) / RFU IL23R (11737362_x_at) / Fold change /veh IL23R (11737362_x_at) / RFU TMEM51 (11727254_a_at) / Fold change /veh TMEM51 (11727254_a_at) / RFU PIWIL2 (11732686_x_at) / Fold change /veh PIWIL2 (11732686_x_at) / RFU ORM1 (11744905_x_at) / Fold change /veh ORM1 (11744905_x_at) / RFU CCDC152 (11743942_at) / Fold change /veh CCDC152 (11743942_at) / RFU ECM1 (11717891_a_at) / Fold change /veh ECM1 (11717891_a_at) / RFU IL23R (11748794_a_at) / Fold change /veh IL23R (11748794_a_at) / RFU TNFAIP8L3 (11732012_x_at) / Fold change /veh TNFAIP8L3 (11732012_x_at) / RFU MBOAT4 (11741988_at) / Fold change /veh MBOAT4 (11741988_at) / RFU 11764193_at / Fold change /veh 11764193_at / RFU TMEM53 (11763286_at) / Fold change /veh TMEM53 (11763286_at) / RFU MAGEB2 (11727129_at) / Fold change /veh MAGEB2 (11727129_at) / RFU TMEM200A (11744735_a_at) / Fold change /veh TMEM200A (11744735_a_at) / RFU CCDC152 (11751479_a_at) / Fold change /veh CCDC152 (11751479_a_at) / RFU FAM211A (11726209_a_at) / Fold change /veh FAM211A (11726209_a_at) / RFU RGS16 (11746705_a_at) / Fold change /veh RGS16 (11746705_a_at) / RFU VCAN (11755009_s_at) / Fold change /veh VCAN (11755009_s_at) / RFU RHOB (11743442_s_at) / Fold change /veh RHOB (11743442_s_at) / RFU RGS16 (11720943_a_at) / Fold change /veh RGS16 (11720943_a_at) / RFU RGS16 (11720944_at) / Fold change /veh RGS16 (11720944_at) / RFU, VPS4B / Fold change vs veh, VPS4B / RFU, CREB1 / Fold change vs veh, CREB1 / RFU, DNAJC13 / Fold change vs veh, DNAJC13 / RFU, GNAQ / Fold change vs veh, GNAQ / RFU, CDK5R1 / Fold change vs veh, CDK5R1 / RFU, ZRANB3 / Fold change vs veh, ZRANB3 / RFU, CUL4A / Fold change vs veh, CUL4A / RFU, CCNY / Fold change vs veh, CCNY / RFU, UFL1 / Fold change vs veh, UFL1 / RFU, COG3 / Fold change vs veh, COG3 / RFU, DIAPH2 / Fold change vs veh, DIAPH2 / RFU, SKA2 / Fold change vs veh, SKA2 / RFU, AFF3 / Fold change vs veh, AFF3 / RFU, LMF1 / Fold change vs veh, LMF1 / RFU, IPO11 / Fold change vs veh, IPO11 / RFU, DFFB / Fold change vs veh, DFFB / RFU, FOXP1 / Fold change vs veh, FOXP1 / RFU, CARD8 / Fold change vs veh, CARD8 / RFU, STRN3 / Fold change vs veh, STRN3 / RFU, ADK / Fold change vs veh, ADK / RFU, RASSF2 / Fold change vs veh, RASSF2 / RFU, WIPF1 / Fold change vs veh, WIPF1 / RFU, LARP1B / Fold change vs veh, LARP1B / RFU, RASA1 / Fold change vs veh, RASA1 / RFU, RB1 / Fold change vs veh, RB1 / RFU, PPFIA1 / Fold change vs veh, PPFIA1 / RFU, MAT2A / Fold change vs veh, MAT2A / RFU, CCT5 / Fold change vs veh, CCT5 / RFU, WDR92 / Fold change vs veh, WDR92 / RFU, CUX1 / Fold change vs veh, CUX1 / RFU, TTC7A / Fold change vs veh, TTC7A / RFU, TMEM135 / Fold change vs veh, TMEM135 / RFU, DEPTOR / Fold change vs veh, DEPTOR / RFU, CPM / Fold change vs veh, CPM / RFU, DNAJB6 / Fold change vs veh, DNAJB6 / RFU, CACNA2D3 / Fold change vs veh, CACNA2D3 / RFU, DTX4 / Fold change vs veh, DTX4 / RFU, TFCP2 / Fold change vs veh, TFCP2 / RFU, GMCL1 /// GMCL1P1 / Fold change vs veh, GMCL1 /// GMCL1P1 / RFU, AEBP2 / Fold change vs veh, AEBP2 / RFU, SNHG1 /// SNORD22 /// SNORD25 /// SNORD26 /// SNORD27 /// SNORD28 /// SNORD29 /// SNORD31 / Fold change vs veh, SNHG1 /// SNORD22 /// SNORD25 /// SNORD26 /// SNORD27 /// SNORD28 /// SNORD29 /// SNORD31 / Fold change (Aza/veh), C12orf56 (ProbeSet 11735607_a_at) / Fold change (ACY-1035/veh), C12orf56 (ProbeSet 11735607_a_at) / Fold change (Aza/veh), FGFR1OP (ProbeSet 11751329_s_at) / Fold change (ACY-1035/veh), FGFR1OP (ProbeSet 11751329_s_at) / Fold change (Aza/veh), VPS36 (ProbeSet 11739960_a_at) / Fold change (ACY-1035/veh), VPS36 (ProbeSet 11739960_a_at) / RFU SYPL1 (11715823_x_at) / Fold change /veh SYPL1 (11715823_x_at) / RFU IGFBP7 (11715501_s_at) / Fold change /veh IGFBP7 (11715501_s_at) / RFU REEP3 (11722064_at) / Fold change /veh REEP3 (11722064_at) / RFU IGLL1 (11728026_x_at) / Fold change /veh IGLL1 (11728026_x_at): dose or concentration left out as unconfirmed. The settings on record: ProbeSet 11724763_s_at; LIST D.

As to `Nc1ncn([C@@H]2O[C@H](CO)[C@@H](O)[C@H]2O)c(=O)n1` [azacitidine], the “RFU, DEPTOR” value is on record as 80.20 RFU.
